# Results as given in PubChem BioAssay (NCI).
#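 Tested at 5 concentrations; 48 h exposure; 96-well plates; endpoints linearly interpolated, else capped at highest concentration. At the GI50, growth is halved. At the TGI there is no net growth.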
# Key:
# Assay in all cases: DTP human tumour cell line panel, 48 h
# 786-0 renal = system: 786-0 renal
# A498 renal = system: A498 renal
# A549 NSCLC = system: A549 NSCLC
# ACHN renal = system: ACHN renal
# BT-549 breast = system: BT-549 breast
# CAKI-1 renal = system: CAKI-1 renal
# CCRF-CEM leukemia = system: CCRF-CEM leukemia
# COLO 205 colon = system: COLO 205 colon
# DU-145 prostate = system: DU-145 prostate
# EKVX NSCLC = system: EKVX NSCLC
# HCT-116 colon = system: HCT-116 colon
# HCT-15 colon = system: HCT-15 colon
# HL-60(TB) leukemia = system: HL-60(TB) leukemia
# HOP-62 NSCLC = system: HOP-62 NSCLC
# HOP-92 NSCLC = system: HOP-92 NSCLC
# HS 578T breast = system: HS 578T breast
# HT29 colon = system: HT29 colon
# IGROV1 ovarian = system: IGROV1 ovarian
# K-562 leukemia = system: K-562 leukemia
# KM12 colon = system: KM12 colon
# LOX IMVI melanoma = system: LOX IMVI melanoma
# M14 melanoma = system: M14 melanoma
# MALME-3M melanoma = system: MALME-3M melanoma
# MCF7 breast = system: MCF7 breast
# MDA-MB-231 breast = system: MDA-MB-231 breast
# MDA-MB-435 = system: MDA-MB-435
# MOLT-4 leukemia = system: MOLT-4 leukemia
# NCI-H226 lung = system: NCI-H226 lung
# NCI-H23 lung = system: NCI-H23 lung
# NCI-H460 lung = system: NCI-H460 lung
# NCI-H522 lung = system: NCI-H522 lung
# NCI/ADR-RES ovarian = system: NCI/ADR-RES ovarian
# OVCAR-3 ovarian = system: OVCAR-3 ovarian
# OVCAR-4 ovarian = system: OVCAR-4 ovarian
# OVCAR-5 ovarian = system: OVCAR-5 ovarian
# OVCAR-8 ovarian = system: OVCAR-8 ovarian
# PC-3 prostate = system: PC-3 prostate
# RPMI-8226 leukemia = system: RPMI-8226 leukemia
# RXF 393 renal = system: RXF 393 renal
# SF-268 CNS = system: SF-268 CNS
# SF-295 CNS = system: SF-295 CNS
# SF-539 CNS = system: SF-539 CNS
# SK-MEL-2 melanoma = system: SK-MEL-2 melanoma
# SK-MEL-28 melanoma = system: SK-MEL-28 melanoma
# SK-OV-3 ovarian = system: SK-OV-3 ovarian
# SN12C renal = system: SN12C renal
# SNB-19 CNS = system: SNB-19 CNS
# SNB-75 CNS = system: SNB-75 CNS
# SW-620 colon = system: SW-620 colon
# T-47D breast = system: T-47D breast
# TK-10 renal = system: TK-10 renal
# U251 CNS = system: U251 CNS
# UACC-257 melanoma = system: UACC-257 melanoma
# UACC-62 melanoma = system: UACC-62 melanoma
# UO-31 renal = system: UO-31 renal
structure (smiles),measurement,setting,value
Cc1ccc(C)c2c1C(=O)N(c1ccc(F)cc1F)C2=O,GI50,786-0 renal,> 100 µM
same,TGI,786-0 renal,> 100 µM
same,GI50,A498 renal,> 100 µM
same,TGI,A498 renal,> 100 µM
same,GI50,A549 NSCLC,> 100 µM
same,TGI,A549 NSCLC,> 100 µM
same,GI50,ACHN renal,> 100 µM
same,TGI,ACHN renal,> 100 µM
same,GI50,BT-549 breast,> 100 µM
same,TGI,BT-549 breast,> 100 µM
same,GI50,CAKI-1 renal,> 100 µM
same,TGI,CAKI-1 renal,> 100 µM
same,GI50,CCRF-CEM leukemia,> 100 µM
same,TGI,CCRF-CEM leukemia,> 100 µM
same,GI50,COLO 205 colon,> 100 µM
same,TGI,COLO 205 colon,> 100 µM
same,GI50,DU-145 prostate,> 100 µM
same,TGI,DU-145 prostate,> 100 µM
same,GI50,EKVX NSCLC,> 100 µM
same,TGI,EKVX NSCLC,> 100 µM
same,GI50,HCT-116 colon,> 100 µM
same,TGI,HCT-116 colon,> 100 µM
same,GI50,HCT-15 colon,> 100 µM
same,TGI,HCT-15 colon,> 100 µM
same,GI50,HL-60(TB) leukemia,> 100 µM
same,TGI,HL-60(TB) leukemia,> 100 µM
same,GI50,HOP-62 NSCLC,> 100 µM
same,TGI,HOP-62 NSCLC,> 100 µM
same,GI50,HOP-92 NSCLC,1.11 µM
same,TGI,HOP-92 NSCLC,> 100 µM
same,GI50,HS 578T breast,> 100 µM
same,TGI,HS 578T breast,> 100 µM
same,GI50,HT29 colon,> 100 µM
same,TGI,HT29 colon,> 100 µM
same,GI50,IGROV1 ovarian,> 100 µM
same,TGI,IGROV1 ovarian,> 100 µM
same,GI50,K-562 leukemia,> 100 µM
same,TGI,K-562 leukemia,> 100 µM
same,GI50,KM12 colon,> 100 µM
same,TGI,KM12 colon,> 100 µM
same,GI50,LOX IMVI melanoma,> 100 µM
same,TGI,LOX IMVI melanoma,> 100 µM
same,GI50,M14 melanoma,> 100 µM
same,TGI,M14 melanoma,> 100 µM
same,GI50,MALME-3M melanoma,> 100 µM
same,TGI,MALME-3M melanoma,> 100 µM
same,GI50,MCF7 breast,> 100 µM
same,TGI,MCF7 breast,> 100 µM
same,GI50,MDA-MB-231 breast,22.9 µM
same,TGI,MDA-MB-231 breast,> 100 µM
same,GI50,MDA-MB-435,> 100 µM
same,TGI,MDA-MB-435,> 100 µM
same,GI50,MOLT-4 leukemia,> 100 µM
same,TGI,MOLT-4 leukemia,> 100 µM
same,GI50,NCI-H226 lung,> 100 µM
same,TGI,NCI-H226 lung,> 100 µM
same,GI50,NCI-H23 lung,> 100 µM
same,TGI,NCI-H23 lung,> 100 µM
same,GI50,NCI-H460 lung,> 100 µM
same,TGI,NCI-H460 lung,> 100 µM
same,GI50,NCI-H522 lung,> 100 µM
same,TGI,NCI-H522 lung,> 100 µM
same,GI50,NCI/ADR-RES ovarian,> 100 µM
same,TGI,NCI/ADR-RES ovarian,> 100 µM
same,GI50,OVCAR-3 ovarian,> 100 µM
same,TGI,OVCAR-3 ovarian,> 100 µM
same,GI50,OVCAR-4 ovarian,> 100 µM
same,TGI,OVCAR-4 ovarian,> 100 µM
same,GI50,OVCAR-5 ovarian,> 100 µM
same,TGI,OVCAR-5 ovarian,> 100 µM
same,GI50,OVCAR-8 ovarian,> 100 µM
same,TGI,OVCAR-8 ovarian,> 100 µM
same,GI50,PC-3 prostate,> 100 µM
same,TGI,PC-3 prostate,> 100 µM
same,GI50,RPMI-8226 leukemia,98.8 µM
same,TGI,RPMI-8226 leukemia,> 100 µM
same,GI50,RXF 393 renal,> 100 µM
same,TGI,RXF 393 renal,> 100 µM
same,GI50,SF-268 CNS,> 100 µM
same,TGI,SF-268 CNS,> 100 µM
same,GI50,SF-295 CNS,> 100 µM
same,TGI,SF-295 CNS,> 100 µM
same,GI50,SF-539 CNS,> 100 µM
same,TGI,SF-539 CNS,> 100 µM
same,GI50,SK-MEL-2 melanoma,> 100 µM
same,TGI,SK-MEL-2 melanoma,> 100 µM
same,GI50,SK-MEL-28 melanoma,> 100 µM
same,TGI,SK-MEL-28 melanoma,> 100 µM
same,GI50,SK-OV-3 ovarian,> 100 µM
same,TGI,SK-OV-3 ovarian,> 100 µM
same,GI50,SN12C renal,> 100 µM
same,TGI,SN12C renal,> 100 µM
same,GI50,SNB-19 CNS,> 100 µM
same,TGI,SNB-19 CNS,> 100 µM
same,GI50,SNB-75 CNS,> 100 µM
same,TGI,SNB-75 CNS,> 100 µM
same,GI50,SW-620 colon,> 100 µM
same,TGI,SW-620 colon,> 100 µM
same,GI50,T-47D breast,74.5 µM
same,TGI,T-47D breast,> 100 µM
same,GI50,TK-10 renal,> 100 µM
same,TGI,TK-10 renal,> 100 µM
same,GI50,U251 CNS,89.3 µM
same,TGI,U251 CNS,> 100 µM
same,GI50,UACC-257 melanoma,> 100 µM
same,TGI,UACC-257 melanoma,> 100 µM
same,GI50,UACC-62 melanoma,> 100 µM
same,TGI,UACC-62 melanoma,> 100 µM
same,GI50,UO-31 renal,> 100 µM
same,TGI,UO-31 renal,> 100 µM
